Source: patent US20130237478A1, “COMPOSITIONS AND METHODS FOR TREATMENT OF PERIPHERAL VASCULAR DISEASE” (TARIX PHARMACEUTICALS LTD., priority 2012, published 2013)
Positions of bridges follow the written chain, without caps; N, C: chain ends. No end group written: not given here.

Legend:
[1] = Body weight of mice in hind limb ischemia studies; type: in vivo, Balb/c mice; conditions: throughout the study
Description: Body weight of animals was measured before the surgery and once weekly thereafter.
The model and procedures used for this example is the same as for those in Examples 1 and 2, unless otherwise specified.

[2] = tested on: hind limb ischemia; assay: Semi-quantitative assessment of limb function in mouse hind limb ischemia model; type: in vivo, Balb/c mice
Source text: A stable hind limb ischemia model has been described previously and is generally characterized by uniform ischemic damage useful for examining the effect of various therapies (Goto, et al. Tokai J Exp Clin Med, 31(3):128 2006; Kang Y, et al. PLoS One. 2009; 4(1):e4275)). The hind limb ischemia model in mice used in this example involves two ligations of the proximal end of the femoral artery and its dissection between the two ligatures. The surgery causes obstruction of the blood flow and subsequently leads to severe ischemic damage (Goto, et al.; Kang, et al.). In this experiment, healthy adult female Balb/c mice were used. Hind limb ischemia was induced in mice using protocols previously described. Briefly, Balb/c female mice were maintained on a standard diet with water available ad libitum. Mice were anesthetized and an incision was made in the skin in the inguinal area. The femoral artery was ligated twice with 6-0 silk thread and transected between the ligatures after this the wound was closed with 4-0 silk thread and the mouse was allowed to recover.
An Angiotensin (1-7) polypeptide composition (TXA127) and vehicle control (DPBS) were supplied as ready to use solutions and were stored at 4° C. until use. TXA127 was injected subcutaneously (500 μg/kg) daily starting on day 1, 24 hours after inducing ischemia, until the end of the study. […]
Semi-quantitative assessment of impaired use of the ischemic limb was performed once a week post-surgery using the scale shown in Table 6 (Stabile et al, Circulation 108(2):205 2003). […]
An Angiotensin (1-7) polypeptide composition (PanCyte) and vehicle control (DPBS) were supplied as ready to use solutions and were stored at 4° C. until use. […]
Semi-quantitative assessment of impaired use of the ischemic limb was performed once a week post-surgery using the scale shown in Table 6 above. […]
An Angiotensin (1-7) polypeptide composition (PanCyte, cyclized Asp^1-Arg^2-Val^3-Ser^4-Ile^5-His^6-Cys (SEQ ID NO:22)) and vehicle control (DPBS) were supplied as ready to use solutions and were stored at 4° C. until use. […]

[3] = tested on: Transient middle cerebral artery occlusion (tMCAO); assay: Body swing test after tMCAO stroke; type: in vivo, rats; conditions: for body swing performance vs vehicle: by Day 28
Description: For the purposes of this example, Transient middle cerebral artery occlusion (tMCAO) procedure Day is defined as “Day 1” in this study. On the day of surgery anesthesia were induced with 4% isoflurane in a mixture of 70% N2O and 30% O2 and maintained with 1.5-2% isoflurane.
The tMCAO procedures were performed according to the method described R. Schmid-Elsaesser et al. Briefly, the right CCA (Common Carotid Artery) was exposed through a midline neck incision and carefully dissected free from surrounding nerves and fascia—from its bifurcation to the base of the skull. The occipital artery branches of the ECA (External Carotid Artery) were then isolated, and these branches were dissected and coagulated. The ECA was dissected further distally and coagulated along with the terminal lingual and maxillary artery branches, which was then divided. The ICA (Internal Carotid Artery) was isolated and carefully separated from the adjacent vagus nerve, and the pterygopalatine artery was ligated close to its origin with a 5-0 nylon suture (SMI, Belgium). Next, a 4-0 silk suture was tied loosely around the mobilized ECA stump, and a 4 cm length of 4-0 monofilament nylon suture (the tip of the suture was blunted by using a flame, and the suture was coated with polylysine, prior to insertion) was inserted through the proximal ECA into the ICA and thence into the circle of Willis, effectively occluding the MCA. The surgical wound was closed and the animals were returned to their cages to recover from anesthesia. One hour and a half after occlusion rats were re-anesthetized, the monofilament was withdrawn to allow reperfusion, the surgical wound was closed and rats were returned to their cages.
Animals were subjected to a modified Modified Neurological Rating Scale (mNRS) at 24 hours post reperfusion. Only animals with an overall score of ≧10 were included in this study. Animals were allocated into the test groups, according to the mNRS results on day 2, in order to have similar distribution of rats performance between groups. Starting on day 2, 24 hours post-surgery, animals in groups 4, 5 and 7 were implanted subcutaneously with an osmotic Alzet pump and treated with either 500 μg/kg TXA127, 500 μg/kg PanCyte, or 50 μg/kg Linear PanCyte. Animals in groups 2, 3 and 6 received 500 μg/kg or 1,000 μg/kg TXA127 or 500 μg/kg PanCyte, administered subcutaneously via daily injection. Animals in group 1 were treated with a daily subcutaneous injection of a PBS (vehicle).
Each rat was held approximately one inch from the base of its tail. It was then elevated to an inch above a surface of a table. The rat was held in the vertical axis, defined as no more than 10° to either the left or the right side. A swing was recorded whenever the rat moves its head out of the vertical axis to either side. Before attempting another swing, the rat must return to the vertical position for the next swing to be counted. Twenty (20) total swings were counted. A normal rat typically has an equal number of swings to either side. Following focal ischemia, the rat tends to swing to the contralateral side (left side in this case). Body swing scores are expressed as a percentage of […] over total swings.

Substance: cyclized Asp^1-Arg^2-Val^3-Ser^4-Ile^5-His^6-Cys (SEQ ID NO:22) (DRVSIHC; bridge 4-7; not fully specified; printed as Asp1-Arg2-Val3-Ser4-Ile5-His6-Cys7) [PanCyte, cyclic angiotensin peptide]
- body weight vs vehicle ([1]; Example 2, 500 or 50 μg/kg SC daily): no statistically significant differences
- body weight vs vehicle ([1]; Example 3, 1-50 μg/kg SC): no statistically significant differences
- limb function vs control ([2]; Example 2, 500 μg/kg SC daily (2F), day 28): improvement in limb function
- limb function vs control ([2]; Example 3, 1 μg/kg SC daily (2F), days 14 and 21): improvement in limb function
- limb function vs control ([2]; Example 3, 50 μg/kg continuous infusion by Alzet pump (6F), days 14 and 21): improvement in limb function
- body swing performance vs vehicle ([3]; 500 μg/kg SC daily): significant improvement in performance
- body swing performance ([3]; 500 μg/kg by Alzet pump, by Day 21): showed improvement
- body swing performance vs vehicle ([3]; 500 μg/kg by Alzet pump): significant improvement in performance
